Results taken from ChEMBL document CHEMBL1201862, “PubChem BioAssay data set” (2004).
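The compound was tested at five concentrations on cells cultured in 96-well plates, with a 48-hour exposure period. GI50 is the concentration that inhibits growth by half.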 Calls of active or inactive are those of the source. Rule as the data show it: active = GI50 up to about 1.1 µM and inactive = higher.

How the values were obtained:
Assay in all cases: NCI-60 cell line screen, 48 h
NCI-H226 = tested on: NCI-H226
MDA-MB-435 = tested on: MDA-MB-435
EKVX = tested on: EKVX
OVCAR-3 = tested on: OVCAR-3
HL-60 = tested on: HL-60
OVCAR-4 = tested on: OVCAR-4
MOLT-4 = tested on: MOLT-4
UACC-257 = tested on: UACC-257
COLO 205 = tested on: COLO 205
K562 = tested on: K562
Malme-3M = tested on: Malme-3M
SF-295 = tested on: SF-295
NCI-H522 = tested on: NCI-H522
CCRF-CEM = tested on: CCRF-CEM
RXF 393 = tested on: RXF 393
TK-10 = tested on: TK-10
KM12 = tested on: KM12
HCC 2998 = tested on: HCC 2998
HCT-116 = tested on: HCT-116
A498 = tested on: A498

Measured: GI50

C=C(C)[C@H]1CC23C(=O)C(C(=O)C(C)C)=C(O)[C@](C)(C[C@H]2C1(C)C)C3=O [LALIBINONE B]
inactive: NCI-H226 16.2 µM | MDA-MB-435 16.4 µM | EKVX 11 µM | OVCAR-3 16.1 µM | HL-60 15.2 µM | OVCAR-4 12.6 µM | MOLT-4 3.72 µM | UACC-257 24 µM | COLO 205 11.1 µM | K562 20.5 µM | Malme-3M 14.3 µM | SF-295 15.1 µM | NCI-H522 16.5 µM | CCRF-CEM 8.3 µM | RXF 393 12.9 µM | TK-10 20.2 µM | KM12 19.6 µM

COc1ccc2c(c1)CC1COc3cc(OC)ccc3C1O2 (stereo unspecified)
inactive: NCI-H226 23 µM | MDA-MB-435 > 100 µM | HCC 2998 > 100 µM | EKVX > 100 µM | OVCAR-3 > 100 µM | MOLT-4 > 100 µM | UACC-257 > 100 µM | COLO 205 > 100 µM | Malme-3M > 100 µM | SF-295 77.3 µM | HCT-116 > 100 µM | NCI-H522 55 µM | A498 > 100 µM | CCRF-CEM > 100 µM | TK-10 > 100 µM | KM12 > 100 µM

Cn1nc(C(=O)N2CC(CCl)c3c2cc([N+](=O)[O-])c2ccccc32)cc1NC(=O)Nc1cc(C(=O)N2CC(CCl)c3c2cc([N+](=O)[O-])c2ccccc32)nn1C (stereo unspecified)
inactive: NCI-H226 > 100 µM | MDA-MB-435 > 100 µM | HCC 2998 > 100 µM | EKVX > 100 µM | OVCAR-3 > 100 µM | OVCAR-4 > 100 µM | MOLT-4 > 100 µM | UACC-257 > 100 µM | COLO 205 > 100 µM | K562 > 100 µM | Malme-3M > 100 µM | SF-295 94.8 µM | HCT-116 > 100 µM | NCI-H522 > 100 µM | A498 > 100 µM | TK-10 > 100 µM | KM12 > 100 µM

O=C1OS2(OCc3cccc4cccc2c34)c2ccccc21 (stereo unspecified)
inactive: NCI-H226 > 100 µM | MDA-MB-435 > 100 µM | HCC 2998 > 100 µM | EKVX > 100 µM | OVCAR-3 > 100 µM | HL-60 > 100 µM | OVCAR-4 > 100 µM | MOLT-4 > 100 µM | UACC-257 > 100 µM | COLO 205 > 100 µM | K562 > 100 µM | Malme-3M > 100 µM | SF-295 > 100 µM | HCT-116 > 100 µM | NCI-H522 50.8 µM | A498 > 100 µM | CCRF-CEM 40.3 µM | TK-10 > 100 µM | KM12 > 100 µM

Cc1ccc(C(=O)N/N=C(\N=N\c2cccc([N+](=O)[O-])c2)c2ccc(N(C)C)cc2)cc1
inactive: NCI-H226 > 100 µM | MDA-MB-435 24.9 µM | HCC 2998 > 100 µM | EKVX 25.2 µM | OVCAR-3 34.6 µM | HL-60 27.9 µM | OVCAR-4 24.4 µM | MOLT-4 14.4 µM | UACC-257 58.3 µM | COLO 205 > 100 µM | K562 30.3 µM | SF-295 48.6 µM | HCT-116 > 100 µM | NCI-H522 37.2 µM | CCRF-CEM 35 µM | TK-10 > 100 µM | KM12 64.9 µM

CCOC(=O)c1c(SCCO)n(-c2ccccc2)c(=S)n(-c2ccccc2)c1=O
inactive: NCI-H226 > 100 µM | MDA-MB-435 > 100 µM | EKVX > 100 µM | OVCAR-3 > 100 µM | HL-60 > 100 µM | OVCAR-4 > 100 µM | MOLT-4 > 100 µM | UACC-257 > 100 µM | COLO 205 > 100 µM | K562 > 100 µM | Malme-3M > 100 µM | SF-295 > 100 µM | HCT-116 > 100 µM | NCI-H522 > 100 µM | CCRF-CEM > 100 µM | TK-10 > 100 µM | KM12 > 100 µM

C1CSC[C@H]2COC[C@@H](CSCCS1)S2
inactive: MDA-MB-435 > 100 µM | HCC 2998 > 100 µM | EKVX > 100 µM | OVCAR-3 > 100 µM | HL-60 > 100 µM | OVCAR-4 > 100 µM | MOLT-4 > 100 µM | UACC-257 > 100 µM | COLO 205 > 100 µM | K562 > 100 µM | SF-295 > 100 µM | HCT-116 > 100 µM | NCI-H522 > 100 µM | CCRF-CEM > 100 µM | TK-10 50.4 µM | KM12 > 100 µM

COc1cc(C(=O)O)c(-c2cc3c(cc2C=O)OCO3)c(OC)c1OC
inactive: MDA-MB-435 > 10 µM | HCC 2998 > 10 µM | OVCAR-3 > 10 µM | HL-60 > 10 µM | OVCAR-4 > 10 µM | MOLT-4 > 10 µM | UACC-257 > 10 µM | COLO 205 > 10 µM | K562 > 10 µM | Malme-3M > 10 µM | SF-295 4.82 µM | HCT-116 > 10 µM | NCI-H522 > 10 µM | CCRF-CEM > 10 µM | TK-10 > 10 µM | KM12 > 10 µM

COc1ccc2c(c1)c1c(n2CCN2CCCCC2)-c2ccccc2CC1
inactive: NCI-H226 5.2 µM | MDA-MB-435 17.5 µM | HCC 2998 6.78 µM | EKVX 17.9 µM | OVCAR-3 18.3 µM | OVCAR-4 16.6 µM | MOLT-4 14.6 µM | UACC-257 17.9 µM | COLO 205 13.6 µM | K562 8.99 µM | Malme-3M 14.6 µM | SF-295 14.8 µM | HCT-116 16.2 µM | NCI-H522 8.97 µM | CCRF-CEM 14 µM | TK-10 14 µM | KM12 14 µM

CCCCCCCCCCCCC(O)C(=O)O (stereo unspecified)
inactive: MDA-MB-435 > 100 µM | HCC 2998 > 100 µM | OVCAR-3 > 100 µM | HL-60 98.6 µM | OVCAR-4 > 100 µM | MOLT-4 > 100 µM | UACC-257 > 100 µM | COLO 205 > 100 µM | K562 > 100 µM | Malme-3M > 100 µM | SF-295 > 100 µM | HCT-116 > 100 µM | NCI-H522 > 100 µM | A498 > 100 µM | CCRF-CEM > 100 µM | TK-10 > 100 µM | KM12 > 100 µM

N#Cc1c(N2CCC(O)C2)c2ccccc2n2c1nc1ccccc12 (stereo unspecified)
inactive: MDA-MB-435 > 100 µM | HCC 2998 > 100 µM | EKVX > 100 µM | OVCAR-3 > 100 µM | HL-60 > 100 µM | OVCAR-4 20.5 µM | MOLT-4 > 100 µM | UACC-257 > 100 µM | COLO 205 > 100 µM | Malme-3M 40.4 µM | SF-295 31 µM | HCT-116 > 100 µM | NCI-H522 47.5 µM | A498 31.3 µM | CCRF-CEM > 100 µM | TK-10 51.1 µM | KM12 > 100 µM
